According to BigSolDB 2.1:

C[C@H]1[C@H](C)CC[C@]2(C(=O)O)CC[C@]3(C)C(=CC[C@@H]4[C@@]5(C)CC[C@H](O)C(C)(C)[C@@H]5CC[C@]43C)[C@H]12
solubility (mole fraction)
Conditions | 293.6 K | 300.1 K | 305.2 K | 310 K | 320.1 K | 323.2 K | 329.7 K
in ethanol | 0.000514 | 0.000766 | 0.000735 | 0.000761 | 0.00105 | 0.00105 | 0.00116
in ethyl acetate | 0.000777 | 0.000771 | 0.00101 | 0.00113 | 0.00155 | 0.00162 | 0.00186
in isopropanol | 0.00144 | 0.00181 | 0.00197 | 0.00213 | 0.00273 | 0.00275 | 0.00295
in methanol | 0.000723 | 0.000851 | 0.000931 | 0.00102 | 0.00133 | 0.00132 | 0.00146
